In series [1] the test system is SUDHL5. Description: Antiproliferation assay 7, SUDHL5. Particulars: SUDHL5 cells, CellTiter-Glo, read-out: Antiproli SUDHL5 IC50 (median). The format is cell-based. A digest of the protocol:
(§1)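 Proliferation was read by CellTiter-Glo luminescence after 72 hours of compound treatment at 37° C. The read was referenced to a parallel plate measured at time zero.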
(In general: Cellular ATP, detected with luciferase, serves as a proxy for viable cell number.)

The next series concerns MV-4-11. As to the kind of experiment: Antiproliferation assay 7, MV-4-11. The format is cell-based. Particulars: MV-4-11 cells, CellTiter-Glo, read-out: Antiproli MV-4-11 IC50 median. The gist of the method:
as §1

The next series concerns HMC-1-8. Description: Antiproliferation assay 7, HMC-1-8. Type of series: cell-based. Particulars: HMC-1-8 cells, CellTiter-Glo, read-out: Antiproli HMC-1-8 IC50 median. A digest of the protocol: as §1
Series [2] has as its system SUDHL10. As to the kind of experiment: Induction of caspase-3/7 activity (Assay 4), SUDHL10. Type of series: cell-based. Particulars: SUDHL10 cells. The gist of the method:
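Luminescent Caspase-Glo 3/7 read-out after a 3 h, 37 °C compound exposure of the DLBCL line SUDHL10. Values are background-corrected using medium-only wells.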

A further series deals with AMO-1. As to the kind of experiment: Antiproliferation assay 7, AMO-1. Type of series: cell-based. Particulars: AMO-1 cells, CellTiter-Glo, read-out: Antiproli AMO-1 IC50 median. A digest of the protocol: as §1
The test system of series [3] is SUDHL5. Description: Induction of caspase-3/7 activity (Assay 4), SUDHL5. The format is cell-based. Particulars: SUDHL5 cells. The gist of the method:
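DLBCL cells treated with compounds for 3 hours at 37° C. Caspase-3/7 activity measured by Caspase-Glo 3/7 luminescence, with medium-only background subtracted.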

In a further series the test system is SK-BR-3. Description: Antiproliferation assay 7, SK-BR-3. Type of series: cell-based. Particulars: SK-BR-3 cells, 72 hours, CellTiter-Glo, read-out: Antiproli SK-BR-3 IC50 median. A digest of the protocol:
as §1

The subject of the next series is NCI-H23. As to the kind of experiment: Antiproliferation assay 7, NCI-H23. Type of series: cell-based. Particulars: NCI-H23 cells, 72 hours, CellTiter-Glo, read-out: Antiproli NCI-H23 IC50 median. The protocol: (§2) Assessment of the Anti-Proliferative Effect of Compounds in Different Cell Lines
(§3) The impact of compounds on the proliferation of different cell lines was assessed using the CellTiter-Glo® Luminescent Cell Viability reagent from Promega (G7573).
(§4) In parallel, cells were plated in a reference (day 0) plate for time zero determination.
(§5) Rim wells were excluded. The cells were incubated for 72 hours in a humidified incubator at 37° C. The day 0 plate was measured by adding 30 μL/well of CTG solution (CellTiter-Glo® Luminescent Cell Viability reagent, Promega G7573) to time zero wells in the reference plate followed by a 10 minutes incubation and luminescence reading at 0.1 ms. using the PHERAstar FS microplate reader (BMG Labtech).
(§6) After 72 hours incubation, the treated plates were measured in the same way as the day 0 plate mentioned above.

In series [4] the test system is SUDHL10. As to the kind of experiment: Induction of cytotoxicity (Assay 6), SUDHL10.
For another series, the system named is A2058. As to the kind of experiment: Antiproliferation assay 7, A2058. The format is cell-based. Particulars: A2058 cells, 72 hours, CellTiter-Glo, read-out: Antiproli A2058 IC50 median. The protocol: as §2, §3, §4, §5, §6
The subject of series [5] is SUDHL10. As to the kind of experiment: Antiproliferation assay 7, SUDHL10. Type of series: cell-based. Particulars: SUDHL10 cells, CellTiter-Glo, read-out: Antiproli SUDHL10 IC50 (median). A digest of the protocol:
as §1

For another series, the system named is KYSE-180. Description: Antiproliferation assay 7, KYSE-180. The format is cell-based. Particulars: Homo sapiens; KYSE-180 cells, 72 hours, CellTiter-Glo; read-out: Antiproli KYSE-180 IC50 median. The method, then: as §2, §3, §4, §5, §6
Series [6] deals with SUDHL5. Description: Induction of cytotoxicity (Assay 6), SUDHL5.
For series [7], the system named is SUDHL5.
Series [8] concerns SUDHL10.
In another series the test system is T47D. As to the kind of experiment: Antiproliferation assay 7, T47D. Type of series: cell-based. Particulars: T47D cells, 72 hours, CellTiter-Glo; read-out: Antiproli T47D IC50 median. The method, then: as §2, §3, §4, §5, §6
For series [9] the following is noted: from CCOC(=O)c1[nH]c2c(-c3c(N(C)CCCCCO)nn(C)c3C)c(Cl)ccc2c1CCCOc1cccc2cc(F)ccc12, amine bond, di-tert-butyl azodicarboxylate/PPh3, THF, 15.7 mM, 64.0 h.
The test system of the next series is SNU-389. Description: Antiproliferation assay 7, SNU-389. The format is cell-based. Particulars: SNU-389 cells, 72 hours, CellTiter-Glo; read-out: Antiproli SNU-389 IC50 median. The protocol:
as §2, §3, §4, §5, §6

[10] abbreviates: Homo sapiens, SU-DHL10, 3 h, Caspase-Glo 3/7, read-out: Caspase SUDHL10 EC50 (median).
The mark [11] stands for this setting: Homo sapiens, SU-DHL-5, 3 h, Caspase-Glo 3/7, read-out: Caspase SUDHL5 EC50 (median).
The mark [12] stands for this setting: Homo sapiens, SU-DHL10, 5 h, read-out: Cytotox SUDHL10 IC50 (median), SUDHL10 cells, 5 hours, CellTiter-Glo.
[13] abbreviates: 3 hours, Caspase-Glo 3/7, read-out: Caspase SUDHL10 EC50 (median).
The mark [14] stands for this setting: 3 hours, Caspase-Glo 3/7, read-out: Caspase SUDHL5 EC50 (median).

The structures appear in SMILES notation. Counter-ions that a name gives are not always drawn. Like-named read-outs stand apart in the source and are kept apart here. Some results are limits rather than exact numbers.

Drawing on US11447504B2, “Macrocyclic chlorine substituted indole derivatives” (Bayer Aktiengesellschaft, priority 2017, dated 2022), this text covers IC50, EC50 and ring closure, yield of all isomers for six compounds.

The IC50 is the midpoint of a concentration-inhibition curve. Usually EC50 stands for the concentration giving half of the maximal effect. Regarding `Cc1nn(C)c2c1-c1c(Cl)ccc3c(CCCOc4cccc5ccccc45)c(C(=O)O)n(c13)CCCCOC2` (racemic) [Example 2, rac-4-chloro-1,3-dimethyl-7-[3-(naphthalen-1-yloxy)propyl]-1,10,11,12,13,15-hexahydropyrazolo[4′,3′:9,10][1,6]oxazacycloundecino[8,7,6-hi]indole-8-carboxylic Acid], the half-inhibitory concentration (IC50) was 2800 nM in the series with SUDHL5 [1] (Homo sapiens, SU-DHL-5, 72 h); 1610 nM in the series with MV-4-11 (Homo sapiens, MV4-11, 72 h); 15300 nM in the series with HMC-1-8 (72 h); 4860 nM with AMO-1 (Homo sapiens, AMO1, 72 h); 8270 nM in the series with SK-BR-3 (Homo sapiens); 14600 nM with NCI-H23 (Homo sapiens). Further, the half-inhibitory concentration (IC50) in the series with SUDHL10 [4] (setting [12]) was 3000 nM; in the series with A2058 (Homo sapiens), more than 30000 nM; with SUDHL10 [5] (Homo sapiens, SU-DHL10, 72 h), 2400 nM. The EC50 with SUDHL10 [2] (setting [10]) came to 3800 nM; with SUDHL5 [3] (setting [11]) it was 950 nM.
Consider `Cc1c2c(nn1C)CN(C)CCCCn1c(C(=O)O)c(CCCOc3cccc4ccccc34)c3ccc(Cl)c-2c31` (single isomer, unassigned; enantiomer 1) [Example 12, (+)-4-chloro-2,3,14-trimethyl-7-[3-(naphthalen-1-yloxy)propyl]-10,11,12,13,14,15-hexahydro-2H-pyrazolo[3′,4′:8,9][1,6]diazacycloundecino[10,11,1-hi]indole-8-carboxylic acid-N-ethylethanamine Salt (Enantiomer 1)], for which the concentration for half-maximal inhibition (IC50) in the series with KYSE-180 stood at 3790 nM; with SUDHL5 [1] (Homo sapiens, SU-DHL-5, 72 h), 170 nM; in the series with MV-4-11 (Homo sapiens, MV4-11, 72 h) it was 441 nM; with HMC-1-8 (72 h) it was 1580 nM; in the series with SUDHL5 [6] (Homo sapiens, SU-DHL-5, 5 h, read-out: Cytotox SUDHL5 IC50 (median), SUDHL5 cells, 5 hours, CellTiter-Glo), 83 nM; in the series with AMO-1 (Homo sapiens, AMO1, 72 h) it was 335 nM. Moreover, the half-maximal inhibitory concentration (IC50) stood at 667 nM with SK-BR-3 (Homo sapiens); 140 nM with SUDHL10 [4] (setting [12]); 4830 nM in the series on A2058 (Homo sapiens); 140 nM in the series with SUDHL10 [5] (Homo sapiens, SU-DHL10, 72 h). In addition, the EC50 worked out at 97 nM in the series on SUDHL10 [2] (setting [10]) and 64 nM in the series on SUDHL5 [3] (setting [11]).
For `Cc1c2c(nn1C)COCCCCn1c(C(=O)O)c(CCCOc3cccc4ccccc34)c3ccc(Cl)c-2c31` (racemic) [Example 25, (rac)-4-chloro-2,3-dimethyl-7-[3-(naphthalen-1-yloxy)propyl]-2,10,11,12,13,15-hexahydropyrazolo[4′,3′:9,10][1,6]oxazacycloundecino[8,7,6-hi]indole-8-carboxylic Acid], the IC50 with SUDHL5 [1] (72 hours) worked out at 560 nM; in the series on MV-4-11 (72 hours), 2780 nM; in the series on HMC-1-8 (72 hours) it was 6480 nM; in the series with SUDHL5 [7], 530 nM; in the series on AMO-1 (72 hours) it was 1310 nM; with SUDHL10 [8] it was 930 nM. For the same compound, the concentration for half-maximal inhibition (IC50) in the series on SK-BR-3 worked out at 12900 nM; in the series with NCI-H23, 6010 nM; with A2058, 21900 nM. Further, the 50% effective concentration (EC50) at SUDHL10 [2] (setting [13]) stood at 1200 nM; on SUDHL5 [3] (setting [14]), 390 nM.
In the case of `Cc1c2c(nn1C)COCCCCn1c(C(=O)O)c(CCCOc3cccc4cc(F)ccc34)c3ccc(Cl)c-2c31` (single isomer, unassigned; enantiomer 1) [Example 15, (+)-4-chloro-7-{3-[(6-fluoronaphthalen-1-yl)oxy]propyl}-2,3-dimethyl-2,10,11,12,13,15-hexahydropyrazolo[4′,3′:9,10][1,6]oxazacycloundecino[8,7,6-hi]indole-8-carboxylic acid-N-ethylethanamine Salt (Enantiomer 1)], the IC50 worked out at 190 nM in the series with SUDHL5 [1] (72 hours); 461 nM in the series with MV-4-11 (72 hours); 1360 nM in the series with HMC-1-8 (72 hours); 140 nM in the series on SUDHL5 [6] (read-out: Cytotox SUDHL5 IC50 (median), SUDHL5 cells, 5 hours, CellTiter-Glo); 530 nM in the series with AMO-1 (72 hours); 230 nM with SUDHL10 [4] (read-out: Cytotox SUDHL10 IC50 (median), SUDHL10 cells, 5 hours, CellTiter-Glo). For the same compound, the concentration for half-maximal inhibition (IC50) in the series on A2058 was 5860 nM; in the series on T47D, 11900 nM; in the series on SUDHL10 [5] (72 hours) it was 200 nM. The EC50 on SUDHL10 [2] (setting [13]) and on SUDHL5 [3] (setting [14]) was 150 nM in each case.
As to `CCOC(=O)c1c(CCCOc2cccc3cc(F)ccc23)c2ccc(Cl)c3c2n1CCCCCN(C)c1nn(C)c(C)c1-3`, the ring closure, yield of all isomers in series [9] was 44.8%.
Regarding `Cc1nn(C)c2c1-c1c(Cl)ccc3c(CCCOc4cccc5ccccc45)c(C(=O)O)n(c13)CCCCOC2` (single isomer, unassigned; enantiomer 1) [Example 3, 4-chloro-1,3-dimethyl-7-[3-(naphthalen-1-yloxy)propyl]-1,10,11,12,13,15-hexahydropyrazolo[4′,3′:9,10][1,6]oxazacycloundecino[8,7,6-hi]indole-8-carboxylic Acid (Enantiomer 1)], the IC50 is 766 nM in the series on MV-4-11 (Homo sapiens, MV4-11, 72 h); 8280 nM in the series on HMC-1-8 (72 h); 2510 nM with AMO-1 (Homo sapiens, AMO1, 72 h); 7370 nM in the series on SK-BR-3 (Homo sapiens); 6120 nM in the series on NCI-H23 (Homo sapiens); more than 30000 nM in the series on A2058 (Homo sapiens). Besides, the IC50 in the series with SNU-389 came to 20600 nM; in the series with SUDHL10 [5] (72 hours), 1700 nM.
